According to patent US5639873A, “Oligothionucleotides” (Centre National de la Recherche Scientifique (CNRS), priority 1992, dated 1997):
Entries after “also recorded” stand apart in the source; their conditions may differ.

How the values were obtained:
[1] = tested on: Endonuclease S1; assay: Enzymatic degradation of hexamers by endonuclease S1; type: in vitro ADME
Source text: (§1) Study of the substrate-type activities of hexamers 4'-SrU6, 4'-SrU6 -3'n-prOH compared with the substrate characteristics of the hexamers βrU6 and αrU6 in relation to various purified nucleases.
Endonuclease S1, specific for the single DNA strand hydrolyzes the phosphodiester bonds in a random manner.
(§2) These four enzymes were obtained from Boehringer Mannheim.
(§3) Generally, one optical density unit at 260 nm of each hexamer is brought into contact with a certain concentration of the enzyme considered and is then diluted in a sufficient quantity for 1000 μl of enzymatic digestion buffer.
(§4) Various digestion buffers were used depending on the nature of the enzyme (Table 9).
(§5) The stock sample is divided into 10 fractions of 100 μl before being frozen at -18° C.
(§6) One aliquot fraction of 100 μl is collected and incubated in a dry oven thermostated at 37° C. for a time t and is then analyzed by analytical HPLC.
(§7) The study of the surface area of the signal corresponding to the hexamer makes it possible to measure a kinetics of degradation whose half-life period is calculated (Table 10).

[2] = tested on: Ribonuclease A; assay: Enzymatic degradation of hexamers by ribonuclease A; type: in vitro ADME
Protocol: as §1
Ribobuclease A degrades an oligoribonucleotide after the pyrimidine residues.
as §2, §3, §4, §5, §6, §7

[3] = tested on: 5'-exonuclease calf spleen phosphodiesterase; assay: Enzymatic degradation of hexamers by 5'-exonuclease calf spleen phosphodiesterase; type: in vitro ADME
Source text: as §1
Calf spleen phosphodiesterase (CSP) is a 5'-exonuclease which degrades the oligonucleotides from their 5' end and liberates nucleotides 3'-phosphates.
as §2, §3, §4, §5, §6, §7

[4] = tested on: 3'-exonuclease snake venom phosphodiesterase; type: in vitro ADME
Source text: as §1
Snake venom phosphodiesterase (VSP) is a 3'-exonuclease-3' which liberates nucleotides 5'-phosphate after degrading the oligomer by its 3' end.
as §2, §3, §4, §5, §6, §7

[5] = tested on: βdC2 A12 C2 (SEQ ID NO: 4); assay: Melting of duplexes with βdC2 A12 C2 (UV spectrophotometry, melting temperature); type: binding; conditions: for Tm: Table 7, duplex with d(C2 A12 C2), 3 μM; for Melting temperature (Tm): 10 mM sodium cacodylate, pH 7
Source text: (§8) UV spectrophotometry makes it possible to study the nucleic acids and to detect the formation of duplex, the melting temperature being one of the characteristics of a duplex. The stacking and pairing of the bases of the nucleic acids are accompanied by a decrease in the UV absorbtion (hypochromicity). […] The point of inflection of the curve, of sygmoidal shape, of the variation of the absorbance as as function of temperature is called melting temperature or Tm and corresponds to the co-existence of separate strands and paired strands in a 50/50 ratio.
(§9) Analysis of the melting curves for the β-4'-thiooligoribonucleotide/β-oligodeoxyribonucleotide and β-4'-thiooligoribonucleotide/β-oligoribonucleotide duplexes will make it possible to define the thermal stability of such duplexes by the measurement of the melting temperature. These hybridization experiments are carried out preserving a 1/1 stoichiometry between the two complementary strands, in the presence of a 1M NaCl, 10 mM sodium cacodylate buffer. A high NaCl concentration indeed favors the pairings by solvating the negative charges around the phosphorus atoms of the two oligonucleotides. We therefore carried out these hybridization experiments in a 0.1M NaCl, 10 mM sodium cacodylate buffer.
(§10) In order to carry out the hybridization experiment, it is necessary to know the concentration of each oligomer in order to preserve the 1:1 stoichiometry between the two complementary strands. According to the BEER-LAMBERT law A=ε1c, the absorbances of the oligomers were measured at 80° C. in order to remove the phenomenon of stacking of the bases creating a disturbance in the hyperchromicity due to the existence of tertiary structures.
(§11) The hybridization experiments were carried out with a UVIKON 810 spectrophotometer (KONTRON), coupled to an IBM-compatible microcomputer. […] The UV cuvettes are made from quartz of 1 cm in length and a continous circulation of nitrogen is used for temperatures of less than 20° C. […] This mixture is heated at 80° C. for 1 hour, and then cooled to -20° C. according to a temperature gradient of 0.5° C. per minute. The absorbance and temperature values are collected every 30 seconds.
(§12) The same experiment is carried out using a sufficient quantity for 1000 μl of 0.1M NaCl, 10 mM sodium cacodylate hybridization buffer adjusted to pH 7 in order to evaluate the thermal stability of the duplex in this buffer which favors the pairings less.
(§13) The hybridization experiments were carried out preserving the 1/1 stoichiometry between the two complementary strands in the presence of a 1M NaCl, 10 mM sodium cacodylate buffer. A high NaCl concentration indeed favors the pairings by solvating the negative charges around the phosphorus atoms of the two oligonucleotides. We carried out these hybridization experiments in another buffer 0.1M NaCl, 10 mM sodium cacodylate.
as §10, with “experiments,” for “experiment,”
as §11

[6] = tested on: polyrA; assay: Melting of duplexes with polyrA (UV spectrophotometry, melting temperature); type: binding; conditions: for Tm: Table 7, duplex with poly rA, 3 μM; for thermal stability with complementary RNA (in words): complementary RNA sequences; for Melting temperature (Tm) / hypochromicity: Table 4, 3 μM of each oligomer; for Melting temperature (Tm): 10 mM sodium cacodylate, pH 7
Source text: as §8, §9, §10, §11, §12, §13
as §10, with “experiments,” for “experiment,”
as §11

[7] = tested on: βSrU12 (SEQ ID NO: 5); assay: Self-hybridization of the oligomer βSrU12; type: binding; conditions: 1M and 0.1M NaCl
Protocol: For that, an experiment for self-hybridization of the dodecamer βSrU12 (SEQ ID NO: 5) was carried out at two NaCl concentrations (1M and 0.1M). […] No point of inflection can be visualized on such a straight line.
The hybridization experiments were carried out with a UVIKON 810 spectrophotometer (KONTRON), coupled to an IBM-compatible microcomputer. The temperature is controlled by a HUBER PD 415 temperature programmer connected to a thermostated bath (HUMER […]). The UV cuvettes are made from quartz of 1 cm in length and a continous circulation of nitrogen is used for temperatures of less than 20° C. Before the experiment, 3 μM (Examples 1 to V) or 10 μM (Examples VI and VII) of complementary oligomers are brought into contact in a sufficient quantity for 1000 μl of 1M NaCl and 10 mM sodium cacodylate buffer, adjusted to pH 7 (Examples I to VII). This mixture is heated at 80° C. for 1 hour, and then cooled to -20° C. according to a temperature gradient of 0.5° C. per minute. The absorbance and temperature values are collected every 30 seconds.
as §12
Concentration of βrU12 (SEQ ID NO: 5)=0.351 mM […]

[8] = tested on: calf spleen phosphodiesterase; assay: Enzymatic degradation of the dodecamers by calf spleen phosphodiesterase; type: in vitro ADME; conditions: for Degradation in 0 min / Degradation in 25 min: Table 8
Source text: Study of the enzymatic degradation of the dodecamer β(SrT)dT11 (SEQ ID NO: 3) by calf spleen phosphodiesterase. Calf spleen phosphodiesterase is an exonuclease which degrades the oligomers from their free 5' ends, thus liberating nucleotides 3' phosphate.
This study will allow us to evaluate the resistance to enzymatic degradation induced by the presence in the 5' position of a 4'-thionucleotide unit in the oligomer β(SrT)dT11 (SEQ ID NO: 3) compared to the enzymatic degradation of the oxygenated natural homolog βdT12 (SEQ ID NO: 3). The comparative stability of the two dodecamers βdT12 (SEQ ID NO: 3) and β(SrT)dT11 (SEQ ID NO: 3) towards hydrolysis by calf spleen phosphodiesterase is presented in Table 8.
The variation over time of the enzymatic degradation of the two dodecamers was monitored by HPLC. We were able to plot the curve for enzymatic digestion of β(SrT)dT11 (SEQ ID NO: 3) as a function of time: A=A0 e^-kt (FIG. 2, A) where:
A0 is the initial surface area of the 12-mer
A is the surface area of the 12-met at the instant t
k is the first order rate constant for the degradation
An oligonucleotide solution (20 μl, 3 absorbance units at 260 nm) is diluted in 0.125M ammmonium acetate buffer (pH 7.0), 2.5 mM EDTA and 0.065% Tween 80 (80 μL). A commercial solution of calf spleen phosphodisesterase (2 μl, final concentration 0.008 unit/ml) is added and the mixture is incubated at 37° C. At determined times, aliquot fractions are collected (5 μl), heated at 100° C. for one minute and analyzed by HPLC.
The analyses were carried out on an PVDI (Polyvinylimidazole SFCC-Shandon) column protected by a precolumn and a prefilter. The elution is carried out based on a linear gradient over 20 minutes from 0.1M to 0.4M KCl in 20 mM KH2 PO4 at pH 6 containing 20% acetonitrile. The flow rate was fixed at 1 ml/min and the UV detection at 260 nm.

[9] = Table 5, 0.1M NaCl, 3 μM of each oligomer
[10] = Table 5, 1M NaCl, 3 μM of each oligomer
[11] = Table 6, 1M NaCl, 10 μM of each oligomer

Substance: 4'-Sr-(U-U-U-U-U-U) [βSrU6]
- enzymatic resistance compared with βrU6 (in words) ([1]; S1): high enzymatic resistance
- Half-life period ([1]; Table 10, S1 20 units/ml, pH 4.7, 37° C.): 15.5 h
- enzymatic resistance compared with βrU6 (in words) ([2]; RNase-A): high enzymatic resistance
- Half-life period ([2]; Table 10, RNAse A 2 × 10^-2 units/ml, pH 7.4, 37° C.): 11.2 h
- enzymatic resistance compared with βrU6 (in words) ([3]; CSP): high enzymatic resistance
- Half-life period ([3]; Table 10, CSP 13 × 10^-3 units/ml, pH 7, 37° C.): 65 h
- Half-life period ([4]; Table 10, VSP 6 × 10^-4 units/ml, pH 9.4, 37° C.): 1.27 h
- enzymatic resistance compared with βrU6 (in words) ([4]; VSP): high enzymatic resistance

Substance: 4'-SrU3 -dT6 -4'-SrU3 /P3 PS5 P3 (UUUTTTTTTUUU; 4'-thioribouridine units; phosphorothioate bonds) [compound 5, mixed dodecamer containing both phosphodiester and phosphorothioate bonds]
- Tm ([5]; 0.1 M NaCl): 3 °C
- Tm ([5]; 1 M NaCl): 19 °C
- Tm ([6]; 0.1 M NaCl): 24 °C
- Tm ([6]; 1 M NaCl): 36 °C
- thermal stability with complementary RNA (in words) [6]: good thermal stability
- decrease in the Tm value per phosphorothioate linkage ([6]; with poly rA and d(C2 A12 C2), versus phosphodiester oligomer 4): about 2 °C

Substance: 4'-SrU3 -dT6 -4'-SrU3 /P11 (UUUTTTTTTUUU; 4'-thioribouridine units) [compound 4, mixed dodecamer with phosphodiester bonds]
- Tm ([5]; 0.1 M NaCl): 10 °C
- Tm ([5]; 1 M NaCl): 31 °C
- Tm values compared with those of βrSU12 (in words) ([5]; with d(C2 A12 C2)): equivalent
- Tm ([6]; 0.1 M NaCl): 32 °C
- Tm ([6]; 1 M NaCl): 45 °C
- thermal stability with complementary RNA (in words) [6]: good thermal stability
- Tm values compared with those of βrSU12 (in words) ([6]; with poly rA): equivalent

Substance: βSrU12: homododecamer 4'-thio-β-D-ribonucleotide (βrSU12)
- self-hybridization (in words) [7]: does not self-pair; also recorded: no self-hybridization
- Melting temperature (Tm) [5, 9]: 5 °C
- hypochromicity [5, 9]: 5.6%
- Melting temperature (Tm) [5, 10]: 27 °C
- hypochromicity [5, 10]: 9.3%
- Melting temperature (Tm) ([6]; 0.1M NaCl): 33 °C
- hypochromicity ([6]; 0.1M NaCl): 25%
- Melting temperature (Tm) ([6]; 1M NaCl): 46 °C
- hypochromicity ([6]; 1M NaCl): 25%
- thermal stability with complementary RNA (in words) [6]: good thermal stability

Substance: βdT5 (SrT)dT6: dodecamer βdT5 (SrT) dT6
- difference in Tm (modified duplex lower than natural duplex) ([5]; 1M NaCl, 10 μM, versus βdT12/βdC2 A12 C2): 5 °C
- Melting temperature (Tm) [5, 11]: 40 °C
- hypochromicity [5, 11]: 18%

Substance: βdT12: oxygenated natural homolog βdT12 [reference compound]
- half-life period (t1/2) ([8]; FIG. 2, 37° C., 0.008 unit/ml): 0.017 h
- Degradation in 0 min ([8]; 37° C., 0.008 unit/ml): 0%
- Degradation in 25 min ([8]; 37° C., 0.008 unit/ml): 93%
- Melting temperature (Tm) [5, 11]: 45 °C
- hypochromicity [5, 11]: 20.5%

Substance: β(SrT)dT11: dodecamer with a 4'-thionucleotide unit in the 5' position (TTTTTTTTTTTT; 5' 4'-thionucleotide unit)
- first order rate constant for the degradation (k) ([8]; FIG. 2, 37° C., 0.008 unit/ml): 0.016 min⁻¹
- half-life period (t1/2) ([8]; FIG. 2, 37° C., 0.008 unit/ml): 0.717 h
- Degradation in 0 min ([8]; 37° C., 0.008 unit/ml): 0%
- Degradation in 25 min ([8]; 37° C., 0.008 unit/ml): 23%
- half-life period compared with that of βSrU12 (in words) ([8]; degradation by the 5' end): substantially greater
